Experiments:
Type in all cases: in vivo
[1] = test system: ryegrass, Italian (Italian ryegrass, Lolium multiflorum); assay: Test C postemergence; conditions: scale 0 to 100, 0 no effect, 100 complete control
Method in brief: (§1)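 Preemergence application to seeds in loam/sand soil, or foliar (postemergence) application to plants 2–18 cm tall in peat moss/vermiculite medium; surfactant-containing non-phytotoxic solvent vehicle; greenhouse. Visual injury vs controls at 13–15 d; 0 = no effect, 100 = complete control.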

[2] = test system: chickweed (common chickweed, Stellaria media); assay: Test C postemergence; conditions: scale 0 to 100, 0 no effect, 100 complete control
Method in brief: as §1

[3] = test system: johnsongrass (Sorghum halepense); assay: Test C postemergence; conditions: scale 0 to 100, 0 no effect, 100 complete control
Method in brief: as §1

[4] = test system: corn (Zea mays); assay: Test C postemergence; conditions: scale 0 to 100, 0 no effect, 100 complete control
Method in brief: as §1

[5] = test system: Kochia (Kochia scoparia); assay: Test C postemergence; conditions: scale 0 to 100, 0 no effect, 100 complete control
Method in brief: as §1

[6] = test system: crabgrass, large (large crabgrass, Digitaria sanguinalis); assay: Test C postemergence; conditions: scale 0 to 100, 0 no effect, 100 complete control
Method in brief: as §1

[7] = test system: soybean (Glycine max); assay: Test C preemergence; conditions: for Plant response rating, Soybean: scale 0 to 100, 0 no effect, 100 complete control
Method in brief: as §1

[8] = test system: velvetleaf (Abutilon theophrasti); assay: Test C preemergence; conditions: for Plant response rating, Velvetleaf: scale 0 to 100, 0 no effect, 100 complete control
Method in brief: as §1

[9] = test system: ryegrass, Italian (Italian ryegrass, Lolium multiflorum); assay: Test C preemergence; conditions: for Plant response rating, Ryegrass, Italian: scale 0 to 100, 0 no effect, 100 complete control
Method in brief: as §1

[10] = test system: nutsedge, yellow (yellow nutsedge, Cyperus esculentus); assay: Test C preemergence; conditions: for Plant response rating, Nutsedge, Yellow: scale 0 to 100, 0 no effect, 100 complete control
Method in brief: as §1

[11] = test system: johnsongrass (Sorghum halepense); assay: Test C preemergence; conditions: for Plant response rating, Johnsongrass: scale 0 to 100, 0 no effect, 100 complete control
Method in brief: as §1

[12] = test system: corn (Zea mays); assay: Test C preemergence; conditions: for Plant response rating, Corn: scale 0 to 100, 0 no effect, 100 complete control
Method in brief: as §1

[13] = test system: oilseed rape (Brassica napus); assay: Test C preemergence; conditions: for Plant response rating, Oilseed Rape: scale 0 to 100, 0 no effect, 100 complete control
Method in brief: as §1

[14] = test system: foxtail, giant (giant foxtail, Setaria faberii); assay: Test C preemergence; conditions: for Plant response rating, Foxtail, Giant: scale 0 to 100, 0 no effect, 100 complete control
Method in brief: as §1

[15] = test system: blackgrass (Alopecurus myosuroides); assay: Test C preemergence; conditions: for Plant response rating, Blackgrass: scale 0 to 100, 0 no effect, 100 complete control
Method in brief: as §1

[16] = test system: wheat (winter wheat, Triticum aestivum); assay: Test C preemergence; conditions: for Plant response rating, Wheat: scale 0 to 100, 0 no effect, 100 complete control
Method in brief: as §1

[17] = test system: waterhemp (common waterhemp, Amaranthus rudis); assay: Test C preemergence; conditions: for Plant response rating, Waterhemp: scale 0 to 100, 0 no effect, 100 complete control
Method in brief: as §1

[18] = test system: pigweed (Amaranthus retroflexus); assay: Test C preemergence; conditions: for Plant response rating, Pigweed: scale 0 to 100, 0 no effect, 100 complete control
Method in brief: as §1

[19] = test system: barnyardgrass (Echinochloa crus-galli); assay: Test C preemergence; conditions: for Plant response rating, Barnyardgrass: scale 0 to 100, 0 no effect, 100 complete control
Method in brief: as §1

[20] = test system: crabgrass, large (large crabgrass, Digitaria sanguinalis); assay: Test C preemergence; conditions: for Plant response rating, Crabgrass, Large: scale 0 to 100, 0 no effect, 100 complete control
Method in brief: as §1

[21] = test system: morningglory (Ipomoea coccinea); assay: Test C preemergence; conditions: for Plant response rating, Morningglory: scale 0 to 100, 0 no effect, 100 complete control
Method in brief: as §1

[22] = test system: Galium (catchweed bedstraw, Galium aparine); assay: Test C preemergence; conditions: for Plant response rating, Galium: scale 0 to 100, 0 no effect, 100 complete control
Method in brief: as §1

[23] = 31 g ai/ha, 0 is no effect, 100 is complete control

CN1C[C@H](c2ccc(F)c(F)c2)[C@@H](C(=O)Nc2ccccc2F)C1=O [Compound 596, (3S,4S)-4-(3,4-difluorophenyl)-N-(2-fluorophenyl)-1-methyl-2-oxo-3-pyrrolidinecarboxamide]
Plant response rating, Ryegrass, Italian ([1]; 31 g ai/ha): 0 | Plant response rating, Ryegrass, Italian ([1]; 62 g ai/ha): 0 | Plant response rating, Ryegrass, Italian ([1]; 125 g ai/ha): 0 | Plant response rating, Ryegrass, Italian ([1]; 250 g ai/ha): 0 | Plant response rating, Chickweed ([2]; 31 g ai/ha): 20 | Plant response rating, Chickweed ([2]; 62 g ai/ha): 20 | Plant response rating, Chickweed ([2]; 125 g ai/ha): 25 | Plant response rating, Chickweed ([2]; 250 g ai/ha): 80 | Plant response rating, Johnsongrass ([3]; 31 g ai/ha): 0 | Plant response rating, Johnsongrass ([3]; 62 g ai/ha): 0 | Plant response rating, Johnsongrass ([3]; 125 g ai/ha): 0 | Plant response rating, Johnsongrass ([3]; 250 g ai/ha): 10 | Plant response rating, Corn ([4]; 31 g ai/ha): 0 | Plant response rating, Corn ([4]; 62 g ai/ha): 0 | Plant response rating, Corn ([4]; 125 g ai/ha): 0 | Plant response rating, Corn ([4]; 250 g ai/ha): 10 | Plant response rating, Kochia ([5]; 31 g ai/ha): 30 | Plant response rating, Kochia ([5]; 62 g ai/ha): 30 | Plant response rating, Kochia ([5]; 125 g ai/ha): 35 | Plant response rating, Kochia ([5]; 250 g ai/ha): 60 | Plant response rating, Crabgrass, Large ([6]; 31 g ai/ha): 30 | Plant response rating, Crabgrass, Large ([6]; 62 g ai/ha): 65 | Plant response rating, Crabgrass, Large ([6]; 125 g ai/ha): 65 | Plant response rating, Crabgrass, Large ([6]; 250 g ai/ha): 75 | Plant response rating (scale of 0 to 100), Soybean [7, 23]: 0 | Plant response rating, Soybean ([7]; 62 g ai/ha): 0 | Plant response rating, Soybean ([7]; 125 g ai/ha): 0 | Plant response rating, Soybean ([7]; 250 g ai/ha): 100 | Plant response rating (scale of 0 to 100), Velvetleaf [8, 23]: 10 | Plant response rating, Velvetleaf ([8]; 62 g ai/ha): 20 | Plant response rating, Velvetleaf ([8]; 125 g ai/ha): 30 | Plant response rating, Velvetleaf ([8]; 250 g ai/ha): 55 | Plant response rating (scale of 0 to 100), Ryegrass, Italian [9, 23]: 0 | Plant response rating, Ryegrass, Italian ([9]; 62 g ai/ha): 0 | Plant response rating, Ryegrass, Italian ([9]; 125 g ai/ha): 30 | Plant response rating, Ryegrass, Italian ([9]; 250 g ai/ha): 45 | Plant response rating (scale of 0 to 100), Nutsedge, Yellow [10, 23]: 0 | Plant response rating, Nutsedge, Yellow ([10]; 62 g ai/ha): 0 | Plant response rating, Nutsedge, Yellow ([10]; 125 g ai/ha): 0 | Plant response rating, Nutsedge, Yellow ([10]; 250 g ai/ha): 0 | Plant response rating (scale of 0 to 100), Johnsongrass [11, 23]: 20 | Plant response rating, Johnsongrass ([11]; 62 g ai/ha): 25 | Plant response rating, Johnsongrass ([11]; 125 g ai/ha): 70 | Plant response rating, Johnsongrass ([11]; 250 g ai/ha): 75 | Plant response rating (scale of 0 to 100), Corn [12, 23]: 0 | Plant response rating, Corn ([12]; 62 g ai/ha): 0 | Plant response rating, Corn ([12]; 125 g ai/ha): 0 | Plant response rating, Corn ([12]; 250 g ai/ha): 35 | Plant response rating (scale of 0 to 100), Oilseed Rape [13, 23]: 0 | Plant response rating, Oilseed Rape ([13]; 62 g ai/ha): 0 | Plant response rating, Oilseed Rape ([13]; 125 g ai/ha): 30 | Plant response rating, Oilseed Rape ([13]; 250 g ai/ha): 90 | Plant response rating (scale of 0 to 100), Foxtail, Giant [14, 23]: 90 | Plant response rating, Foxtail, Giant ([14]; 62 g ai/ha): 90 | Plant response rating, Foxtail, Giant ([14]; 125 g ai/ha): 95 | Plant response rating, Foxtail, Giant ([14]; 250 g ai/ha): 100 | Plant response rating (scale of 0 to 100), Blackgrass [15, 23]: 0 | Plant response rating, Blackgrass ([15]; 62 g ai/ha): 40 | Plant response rating, Blackgrass ([15]; 125 g ai/ha): 70 | Plant response rating, Blackgrass ([15]; 250 g ai/ha): 90 | Plant response rating (scale of 0 to 100), Wheat [16, 23]: 15 | Plant response rating, Wheat ([16]; 62 g ai/ha): 45 | Plant response rating, Wheat ([16]; 125 g ai/ha): 50 | Plant response rating, Wheat ([16]; 250 g ai/ha): 70 | Plant response rating (scale of 0 to 100), Waterhemp [17, 23]: 0 | Plant response rating, Waterhemp ([17]; 62 g ai/ha): 0 | Plant response rating, Waterhemp ([17]; 125 g ai/ha): 25 | Plant response rating, Waterhemp ([17]; 250 g ai/ha): 65 | Plant response rating (scale of 0 to 100), Pigweed [18, 23]: 20 | Plant response rating, Pigweed ([18]; 62 g ai/ha): 25 | Plant response rating, Pigweed ([18]; 125 g ai/ha): 40 | Plant response rating, Pigweed ([18]; 250 g ai/ha): 55 | Plant response rating (scale of 0 to 100), Barnyardgrass [19, 23]: 90 | Plant response rating, Barnyardgrass ([19]; 62 g ai/ha): 95 | Plant response rating, Barnyardgrass ([19]; 125 g ai/ha): 95 | Plant response rating, Barnyardgrass ([19]; 250 g ai/ha): 95 | Plant response rating (scale of 0 to 100), Crabgrass, Large [20, 23]: 95 | Plant response rating, Crabgrass, Large ([20]; 62 g ai/ha): 100 | Plant response rating, Crabgrass, Large ([20]; 125 g ai/ha): 100 | Plant response rating, Crabgrass, Large ([20]; 250 g ai/ha): 100 | Plant response rating (scale of 0 to 100), Morningglory [21, 23]: 0 | Plant response rating, Morningglory ([21]; 62 g ai/ha): 0 | Plant response rating, Morningglory ([21]; 125 g ai/ha): 10 | Plant response rating, Morningglory ([21]; 250 g ai/ha): 20 | Plant response rating (scale of 0 to 100), Galium [22, 23]: 30 | Plant response rating, Galium ([22]; 62 g ai/ha): 85 | Plant response rating, Galium ([22]; 125 g ai/ha): 40 | Plant response rating, Galium ([22]; 250 g ai/ha): 85
